Measured values published in patent US20200138825A1, “METHOD OF TREATING MALIGNANT RHABDOID TUMOR OF THE OVARY (MRTO)/SMALL CELL CANCER OF THE OVARY OF THE HYPERCALCEMIC TYPE(SCCOHT) WITH AN EZH2 INHIBITOR” (Epizyme, Inc., priority 2015, published 2020).

Key:
Assay type in all cases: cell-based
[1] = tested on: SMARCA4-negative ovarian cell lines; experiment: Long term 2D proliferation assay, SMARCA4-negative ovarian cell lines; details: day 14, SMARCA4-negative cell lines
Description: (§1) FIG. 13B is a pair of graphs depicting the results of a long term 2D proliferation assay for Compound D in SMARCA4 and ARID1A ovarian cell lines. The day 14 IC50 values are shown.
(§2) A panel of ovarian cancer cell lines of different histologies was subjected to proliferation assays in 2-D tissue culture for 14 days in the presence of increasing concentrations of an EZH2 inhibitor. Selected cell lines were also tested in 3-D cultures. […] In contrast, mutations in ARID1A, another SWI/SNF component, were not observed to broadly confer sensitivity to EZH2 inhibition in ovarian cancer cell lines in either 2-D or 3-D in vitro assays.

[2] = tested on: ARID1A-mutated ovarian cell lines; experiment: 3D growth assay (Scivax Nanoculture), ARID1A-mutated ovarian cell lines; details: after 14 days
Description: 3D assays were performed using the Scivax Nanoculture technology whereby the micro-patterned scaffold mimics the ECM.
as §2

A427 = experiment: EZH2 inhibition sensitivity, A427; details: Homo sapiens, A-427, SMARCA2 mRNA/protein loss, SMARCA4 Mutations, KRAS Mutations, read-out: Compound D IC50
Text: (§3) Sensitivity to EZH2 inhibition was examined in various cancer cell lines with similar mutations or loss of SWI/SNF components. Table 7 summarizes the EZH2 activity in additional SWI/SNF altered cancers, including lung adenocarcinoma.

NClH1563 = experiment: EZH2 inhibition sensitivity, NClH1563; details: no mutations or info not available in SMARCA2, SMARCA4, KRAS, read-out: Compound D IC50
Text: as §3

Calu-3 = experiment: EZH2 inhibition sensitivity, Calu-3; details: Homo sapiens, no mutations or info not available in SMARCA2, SMARCA4, KRAS, read-out: Compound D IC50
Text: as §3

A549 = experiment: EZH2 inhibition sensitivity, A549 (Proquinase 3D); details: Homo sapiens, Proquinase 3D IC50, SMARCA4 Mutations, KRAS Mutations, read-out: Compound D IC50
Text: as §3

NClH1793 = experiment: EZH2 inhibition sensitivity, NClH1793; details: SMARCA4 Mutations, read-out: Compound D IC50
Text: as §3

H460 = experiment: EZH2 inhibition sensitivity, H460 (Proquinase 3D); details: Homo sapiens, NCI-H460, Proquinase 3D IC50, KRAS Mutations, read-out: Compound D IC50
Text: as §3

NClH1373 = experiment: EZH2 inhibition sensitivity, NClH1373; details: KRAS Mutations, read-out: Compound D IC50
Text: as §3

HCC827 = experiment: EZH2 inhibition sensitivity, HCC827 (Proquinase 3D); details: Homo sapiens, Proquinase 3D IC50, no mutations or info not available in SMARCA2, SMARCA4, KRAS, read-out: Compound D IC50
Text: as §3

[3] = tested on: ARID1A mutated ovarian cell lines; experiment: Long term 2D proliferation assay, ARID1A mutated ovarian cell lines; details: day 14, ARID1A mutated ovarian cell lines
Description: as §1, §2

H3K27me3 in Bin-67 cells = experiment: Western Blot of H3K27me3 levels in Bin-67 cells; details: day 14, all concentrations
SCCOHT cell lines = experiment: 14-day proliferation assays, SCCOHT cell lines; details: 336 h, three SCCOHT cell lines
Description: as §2

NClH2122 = experiment: EZH2 inhibition sensitivity, NClH2122; details: KRAS Mutations, read-out: Compound D IC50
Text: as §3

SCCOHT cell line Bin-67 = experiment: 14 day proliferation study in Bin-67; details: 336 h; Bin-67, 14 day proliferation, 0.01-10 μM
Description: FIG. 13C is a graph displaying the results of a 14 day proliferation study with Compound D in the SMARCA4- and SMARCA2-negative small cell carcinoma of the ovary, hypercalcemic type (SCCOHT) cell line Bin-67. Growth curves are shown for 8 different treatment conditions ranging from 0.01-10 μM.
as §2

NCl-H1299 = experiment: EZH2 inhibition sensitivity, NCl-H1299; details: SMARCA4 Mutations, read-out: Compound D IC50
Text: as §3

NClH1734 = experiment: EZH2 inhibition sensitivity, NClH1734; details: KRAS Mutations, read-out: Compound D IC50
Text: as §3

NClH838 = experiment: EZH2 inhibition sensitivity, NClH838; details: SMARCA4 Mutations, read-out: Compound D IC50
Text: as §3

NCl-H441 = experiment: EZH2 inhibition sensitivity, NCl-H441 (Proquinase 3D); details: Proquinase 3D IC50, KRAS Mutations, read-out: Compound D IC50
Text: as §3

NClH1993 = experiment: EZH2 inhibition sensitivity, NClH1993; details: no mutations or info not available in SMARCA2, SMARCA4, KRAS, read-out: Compound D IC50
Text: as §3

NCl-H522 = experiment: EZH2 inhibition sensitivity, NCl-H522; details: SMARCA2 mRNA/protein loss, SMARCA4 Mutations, KRAS No mutations or info not available, read-out: Compound D IC50
Text: as §3

Calu-6 = experiment: EZH2 inhibition sensitivity, Calu-6; details: Homo sapiens, KRAS Mutations, read-out: Compound D IC50
Text: as §3

NClH2110 = experiment: EZH2 inhibition sensitivity, NClH2110; details: no mutations or info not available in SMARCA2, SMARCA4, KRAS, read-out: Compound D IC50
Text: as §3

NCl-H23 = experiment: EZH2 inhibition sensitivity, NCl-H23; details: SMARCA2 mRNA/protein loss, SMARCA4 Mutations, KRAS Mutations, read-out: Compound D IC50
Text: as §3

In the case of `CCN(c1cc(-c2ccc(CN3CCOCC3)cc2)cc(C(=O)NCc2c(C)cc(C)[nH]c2=O)c1C)[C@H]1CC[C@H](N(C)C)CC1` [Compound D], the anti-proliferative effects [1] is reported as “anti-proliferative effects”, the 3D growth effects [2] is reported as “No effects were observed” and the IC50 (A427) is reported as 2.3 µM. It also gave an IC50 (NClH1563) of 10 µM, an IC50 (Calu-3) of 10 µM and an IC50 (A549) of 10 µM. It also gave an IC50 (NClH1793) of 10 µM, an IC50 (H460) of 10 µM and an IC50 (NClH1373) of 10 µM. For the same compound, the IC50 (HCC827) was 10 µM, the anti-proliferative effects [3] was “do not” and the H3K27me3 levels (H3K27me3 in Bin-67 cells) was “completely reduced”. For the same compound, the IC50 (SCCOHT cell lines) was 0.005 to 0.017 µM, the IC50 (NClH2122) was 10 µM and the IC50 (SCCOHT cell line Bin-67) was 0.01 µM. For the same compound, the IC50 (NCl-H1299) was 10 µM, the IC50 (NClH1734) was 10 µM and the IC50 (NClH838) was 10 µM. It also gave an IC50 (NCl-H441) of 10 µM, an IC50 (NClH1993) of 10 µM and an IC50 (NCl-H522) of 1.14 µM. The IC50 (Calu-6) was 0.001 µM, the IC50 (NClH2110) was 10 µM and the IC50 (NCl-H23) was 10 µM.
